# Reference: patent US20120178766A1, “FUROPYRIMIDINEDIONE DERIVATIVES AS TRPAI MODULATORS” (priority 2009, published 2012)
# Assays:
# human TRPA1 = biological target: T1, human TRPA1 (Homo sapiens, UniProt O75762); assay: 45Calcium uptake assay: inhibition of AITC induced cellular uptake of radioactive calcium, human TRPA1 expressing CHO cells; type: cell-based; details: AITC 30 μM; for inhibition at 1 µM: 1.0 μM compound, read-out: human TRPA1 Percentage inhibition at 1.0 μM; for inhibition at 10 µM: 10.0 μM compound, read-out: human TRPA1 Percentage inhibition at 10.0 μM; for IC50: class symbols
# T1 construct: expressed in transfected cells; host or cells: CHO cells (G-418 selection)
# T1 sequence (O75762 whole entry): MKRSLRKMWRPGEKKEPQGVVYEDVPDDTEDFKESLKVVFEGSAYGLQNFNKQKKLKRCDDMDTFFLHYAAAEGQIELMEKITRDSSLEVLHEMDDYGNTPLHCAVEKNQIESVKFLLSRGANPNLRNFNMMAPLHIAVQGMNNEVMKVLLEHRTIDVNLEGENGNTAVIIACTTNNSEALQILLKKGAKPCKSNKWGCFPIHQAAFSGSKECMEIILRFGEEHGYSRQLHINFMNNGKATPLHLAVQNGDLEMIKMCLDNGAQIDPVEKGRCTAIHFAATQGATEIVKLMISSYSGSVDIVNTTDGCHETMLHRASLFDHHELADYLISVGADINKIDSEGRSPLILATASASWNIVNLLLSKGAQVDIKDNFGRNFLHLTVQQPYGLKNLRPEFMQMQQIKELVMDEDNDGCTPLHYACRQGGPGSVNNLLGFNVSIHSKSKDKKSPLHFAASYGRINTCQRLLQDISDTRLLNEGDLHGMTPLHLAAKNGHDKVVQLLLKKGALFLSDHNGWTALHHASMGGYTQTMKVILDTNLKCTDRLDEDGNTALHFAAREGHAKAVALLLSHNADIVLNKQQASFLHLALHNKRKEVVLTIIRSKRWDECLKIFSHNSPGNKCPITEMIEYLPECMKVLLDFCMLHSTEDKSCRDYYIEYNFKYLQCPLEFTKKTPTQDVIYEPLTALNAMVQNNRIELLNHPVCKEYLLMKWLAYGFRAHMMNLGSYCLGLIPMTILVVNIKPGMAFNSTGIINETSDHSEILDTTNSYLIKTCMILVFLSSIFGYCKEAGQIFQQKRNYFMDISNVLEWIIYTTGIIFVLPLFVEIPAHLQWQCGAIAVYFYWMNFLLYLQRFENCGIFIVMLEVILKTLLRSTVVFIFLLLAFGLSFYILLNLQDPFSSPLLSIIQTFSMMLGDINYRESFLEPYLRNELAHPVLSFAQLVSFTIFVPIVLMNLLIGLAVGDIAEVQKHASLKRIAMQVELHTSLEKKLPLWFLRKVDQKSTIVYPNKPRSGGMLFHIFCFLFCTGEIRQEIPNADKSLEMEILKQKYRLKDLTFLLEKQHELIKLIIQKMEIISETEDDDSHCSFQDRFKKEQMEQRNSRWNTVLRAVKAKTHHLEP
# Source text: The illustrative examples of the present invention are screened for TRPA1 activity according to a modified procedure described in (a) Tóth, A. et al. Life Sciences, 2003, 73, 487-498. (b) McNamara C, R. et al, Proc. Natl. Acad. Sci. U.S.A., 2007, 104, 13525-13530. The screening of the compounds can be carried out by other methods and procedures known to persons skilled in the art.
# (§1) Screening for TRPA1 Antagonist Using the ^45Calcium Uptake Assay:
# (§2) The inhibition of TRPA1 receptor activation was measured as inhibition of allyl isothiocyanate (AITC) induced cellular uptake of radioactive calcium.
# Test compounds were dissolved in 100% DMSO to prepare 10 mM stock and then diluted using plain medium with 0.1% BSA and 1.8 mM CaCl2 to get the desired concentration. The final concentration of DMSO in the reaction was 0.5% (v/v). Human TRPA1 expressing CHO cells were grown in F-12 DMEM medium with 10% FBS, 1% penicillin-streptomycin solution, and 400 μg/ml of G-418. Rat TRPA1 expressing CHO cells were grown in F-12 DMEM medium with 10% FBS, 1% penicillin-streptomycin solution, and 400 μg/ml of Zeocin. Cells were seeded 24 h prior to the assay in 96 well plates so as to get ˜50,000 cells per well on the day of experiment. Cells were treated with the test compounds for 10 minutes followed by the addition of AITC at a final concentration of 30 μM (for human TRPA1) and/or 10 μM (for rat TRPA1) and 5 μCi/ml ^45Ca^+2 for 3 minutes. Cells were washed and lysed using a buffer containing 1% Triton X-100, 0.1% deoxycholate and 0.1% SDS. Radioactivity in the lysate was measured in a Packard TopCount after addition of liquid scintillant. (Toth et al, Life Sciences (2003) 73, 487-498; McNamara C R et al, Proceedings of the National Academy of Sciences, (2007) 104, 13525-13530).
# (§3) Concentration response curves were plotted as a % of maximal response obtained in the absence of test antagonist. IC50 values can be calculated from concentration response curve by nonlinear regression analysis using GraphPad PRISM software.
# rat TRPA1 = biological target: T2, rat TRPA1 (Rattus norvegicus, UniProt Q6RI86); assay: 45Calcium uptake assay: inhibition of AITC induced cellular uptake of radioactive calcium, rat TRPA1 expressing CHO cells; type: cell-based; details: AITC 10 μM; for inhibition at 10 µM: 10.0 μM compound, read-out: rat TRPA1 Percentage inhibition at 10.0 μM; for inhibition at 1 µM: read-out: rat TRPA1 Percentage inhibition; for IC50: class symbols
# T2 construct: expressed in transfected cells; host or cells: CHO cells (Zeocin selection)
# T2 sequence (Q6RI86 whole entry): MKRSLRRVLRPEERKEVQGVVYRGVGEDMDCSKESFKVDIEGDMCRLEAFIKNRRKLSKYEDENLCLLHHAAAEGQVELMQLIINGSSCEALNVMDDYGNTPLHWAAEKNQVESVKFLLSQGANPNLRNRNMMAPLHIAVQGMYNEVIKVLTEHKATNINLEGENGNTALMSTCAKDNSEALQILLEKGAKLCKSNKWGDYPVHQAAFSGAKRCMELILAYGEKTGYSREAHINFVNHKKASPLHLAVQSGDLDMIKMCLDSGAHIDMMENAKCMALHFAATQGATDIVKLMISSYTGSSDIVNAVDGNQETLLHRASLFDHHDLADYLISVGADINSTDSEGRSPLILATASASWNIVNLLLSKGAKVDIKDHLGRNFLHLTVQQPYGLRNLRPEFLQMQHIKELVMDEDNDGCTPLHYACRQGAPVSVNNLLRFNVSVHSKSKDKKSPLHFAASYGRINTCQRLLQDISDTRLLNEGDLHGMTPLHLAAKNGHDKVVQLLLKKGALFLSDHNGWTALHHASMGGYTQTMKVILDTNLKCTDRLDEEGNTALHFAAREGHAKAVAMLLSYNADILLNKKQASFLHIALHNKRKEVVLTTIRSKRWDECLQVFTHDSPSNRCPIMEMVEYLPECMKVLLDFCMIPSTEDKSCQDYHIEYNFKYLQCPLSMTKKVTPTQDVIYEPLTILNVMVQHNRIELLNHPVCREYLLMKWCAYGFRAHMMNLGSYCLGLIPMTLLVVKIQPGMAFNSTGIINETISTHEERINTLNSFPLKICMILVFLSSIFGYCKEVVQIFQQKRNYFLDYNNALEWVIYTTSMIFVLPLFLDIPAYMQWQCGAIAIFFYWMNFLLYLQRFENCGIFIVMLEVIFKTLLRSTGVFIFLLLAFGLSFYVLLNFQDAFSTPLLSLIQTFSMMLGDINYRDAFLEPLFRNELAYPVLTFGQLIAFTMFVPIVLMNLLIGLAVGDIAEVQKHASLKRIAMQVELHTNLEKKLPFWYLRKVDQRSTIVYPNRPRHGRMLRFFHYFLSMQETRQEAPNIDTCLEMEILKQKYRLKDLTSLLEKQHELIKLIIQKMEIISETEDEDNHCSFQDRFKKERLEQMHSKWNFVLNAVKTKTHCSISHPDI
# Protocol: as §1, §2
# Test compounds were dissolved in 100% DMSO to prepare 10 mM stock and then diluted using plain medium with 0.1% BSA and 1.8 mM CaCl2 to get the desired concentration. The final concentration of DMSO in the reaction was 0.5% (v/v). […] Rat TRPA1 expressing CHO cells were grown in F-12 DMEM medium with 10% FBS, 1% penicillin-streptomycin solution, and 400 μg/ml of Zeocin. […] Cells were treated with the test compounds for 10 minutes followed by the addition of AITC at a final concentration of 30 μM (for human TRPA1) and/or 10 μM (for rat TRPA1) and 5 μCi/ml ^45Ca^+2 for 3 minutes. Cells were washed and lysed using a buffer containing 1% Triton X-100, 0.1% deoxycholate and 0.1% SDS. Radioactivity in the lysate was measured in a Packard TopCount after addition of liquid scintillant.
# as §3
SMILES,inhibition at 1 µM (human TRPA1) [%],inhibition at 10 µM (human TRPA1) [%],IC50 (human TRPA1) [nM],inhibition at 10 µM (rat TRPA1) [%],inhibition at 1 µM (rat TRPA1) [%],IC50 (rat TRPA1) [nM]
"Cn1c(=O)c2c(CC(=O)Nc3nc(-c4ccc(OCC(F)(F)F)c(Cl)c4)cs3)coc2n(C)c1=O [Example 31, N1-{4-[3-Chloro-4-(2,2,2-trifluoroethoxy)phenyl]-1,3-thiazol-2-yl}2-(1,3-dimethyl-2,4-dioxo-1,2,3,4-tetrahydrofuro[2,3-d]pyrimidin-5-yl)acetamide]",98.3,99.8,< 50,100,96.8,50 to 100
"Cn1c(=O)c2c(CC(=O)Nc3nc(-c4ccc(OCC(F)(F)F)c(Br)c4)cs3)coc2n(C)c1=O [Example 32, N1-{4-[3-Bromo-4-(2,2,2-trifluoroethoxy)phenyl]-1,3-thiazol-2-yl}2-(1,3-dimethyl-2,4-dioxo-1,2,3,4-tetrahydrofuro[2,3-d]pyrimidin-5-yl)acetamide]",99.8,99.5,< 50,100,85.2,< 50
"Cn1c(=O)c2c(CC(=O)Nc3nc(-c4ccc(Cl)c(Cl)c4Cl)cs3)coc2n(C)c1=O [Example 34, N1-[4-(2,3,4-Trichlorophenyl)-1,3-thiazol-2-yl]-2-(1,3-dimethyl-2,4-dioxo-1,2,3,4-tetrahydrofuro[2,3-d]pyrimidin-5-yl)acetamide]",97,99.7,< 50,99.3,91,50 to 100
"Cn1c(=O)c2c(CC(=O)Nc3nc(-c4ccc(F)c(C(F)(F)F)c4F)cs3)coc2n(C)c1=O [Example 35, N1-{4-[2,4-Difluoro-3-(trifluoromethyl)phenyl]-1,3-thiazol-2-yl}2-(1,3-dimethyl-2,4-dioxo-1,2,3,4-tetrahydrofuro[2,3-d]pyrimidin-5-yl)acetamide]",99.8,98.4,< 50,–,–,< 50
"Cn1c(=O)c2c(CC(=O)Nc3nc(-c4cc(F)c(C(F)(F)F)c(F)c4)cs3)coc2n(C)c1=O [Example 36, N1-{4-[3,5-Difluoro-4-(trifluoromethyl)phenyl]-1,3-thiazol-2-yl}-2-(1,3-dimethyl-2,4-dioxo-1,2,3,4-tetrahydrofuro[2,3-d]pyrimidin-5-yl)acetamide]",99.7,99.6,< 50,100,100,50 to 100
"Cn1c(=O)c2c(CC(=O)Nc3nc(-c4cc(F)c(OC(F)F)c(F)c4)cs3)coc2n(C)c1=O [Example 37, N1-{4-[3,5-Difluoro-4-(difluoromethoxy)phenyl]-1,3-thiazol-2-yl}-2-(1,3-dimethyl-2,4-dioxo-1,2,3,4-tetrahydrofuro[2,3-d]pyrimidin-5-yl)acetamide]",99.9,99.7,< 50,100,100,50 to 100
"Cn1c(=O)c2c(CC(=O)Nc3nc(-c4cc(Cl)c(OC(F)F)c(Cl)c4)cs3)coc2n(C)c1=O [Example 38, N1-{4-[3,5-Dichloro-4-(difluoromethoxy)phenyl]-1,3-thiazol-2-yl}-2-(1,3-dimethyl-2,4-dioxo-1,2,3,4-tetrahydrofuro[2,3-d]pyrimidin-5-yl)acetamide]",99.8,99.9,< 50,100,67,> 100
"Cn1c(=O)c2c(CC(=O)Nc3nc(-c4cc(F)c(OCC5CC5)c(F)c4)cs3)coc2n(C)c1=O [Example 39, N1-{4-[4-(Cyclopropylmethoxy)-3,5-difluorophenyl]-1,3-thiazol-2-yl]-2-(1,3-dimethyl-2,4-dioxo-1,2,3,4-tetrahydrofuro[2,3-d]pyrimidin-5-yl)acetamide]",94.2,98.7,< 50,–,–,> 100
"CC(C)COc1c(F)cc(-c2csc(NC(=O)Cc3coc4c3c(=O)n(C)c(=O)n4C)n2)cc1F [Example 40, N1-{4-(3,5-Difluoro-4-isobutoxyphenyl)-1,3-thiazol-2-yl}2-(1,3-dimethyl-2,4-dioxo-1,2,3,4-tetrahydrofuro[2,3-d]pyrimidin-5-yl)acetamide]",93.2,99.2,< 50,99.6,99.2,< 50
"CC(C)COc1c(Cl)cc(-c2csc(NC(=O)Cc3coc4c3c(=O)n(C)c(=O)n4C)n2)cc1Cl [Example 41, N1-[4-(3,5-Dichloro-4-isobutoxyphenyl)-1,3-thiazol-2-yl]-2-(1,3-dimethyl-2,4-dioxo-1,2,3,4-tetrahydrofuro[2,3-d]pyrimidin-5-yl)acetamide]",99.6,100,< 50,100,99.5,< 50
"Cn1c(=O)c2c(CC(=O)Nc3nc(-c4cc(F)c(OCC(C)(C)C)c(F)c4)cs3)coc2n(C)c1=O [Example 42, N1-{4-[3,5-Difluoro-4-(2,2-dimethylpropoxy)phenyl]-1,3-thiazol-2-yl}2-(1,3-dimethyl-2,4-dioxo-1,2,3,4-tetrahydrofuro[2,3-d]pyrimidin-5-yl)acetamide]",96.1,99.9,< 50,–,–,< 50
"Cn1c(=O)c2c(CC(=O)Nc3nc(-c4cc(Cl)c(OCC(C)(C)C)c(Cl)c4)cs3)coc2n(C)c1=O [Example 43, N1-{4-[3,5-Dichloro-4-(2,2-dimethylpropoxy)phenyl]-1,3-thiazol-2-yl}-2-(1,3-dimethyl-2,4-dioxo-1,2,3,4-tetrahydrofuro[2,3-d]pyrimidin-5-yl)acetamide]",99.2,99.7,< 50,100,89.2,50 to 100
"Cn1c(=O)c2c(CC(=O)Nc3nc(-c4cc(F)c(OCC(C)(C)C)c(Cl)c4)cs3)coc2n(C)c1=O [Example 44, N1-{4-[3-Chloro-5-fluoro-4-(2,2-dimethylpropoxy)phenyl]-1,3-thiazol-2-yl}-2-(1,3-dimethyl-2,4-dioxo-1,2,3,4-tetrahydrofuro[2,3-d]pyrimidin-5-yl)acetamide]",100,99.5,< 50,99.2,71,< 50
"Cn1c(=O)c2c(CC(=O)Nc3nc(-c4cc(F)c(OCC(F)(F)F)c(F)c4)cs3)coc2n(C)c1=O [Example 46, N1-{4-[3,5-Difluoro-4-(2,2,2-trifluoroethoxy)phenyl]-1,3-thiazol-2-yl}-2-(1,3-dimethyl-2,4-dioxo-1,2,3,4-tetrahydrofuro[2,3-d]pyrimidin-5-yl)acetamide]",99.8,100,< 50,99.5,96.1,50 to 100
